Measurements: patent US9840507B2, “5,6-dihydro-imidazo[1,2-a]pyrazin-8-ylamine derivatives useful as inhibitors of beta-secretase (BACE)” (Janssen Pharmaceutica, NV, priority 2010, dated 2017)

What was measured:
[1] = tested on: Aβ42 produced and secreted into the medium of human neuroblastoma SKNBE2 cells; test: Cellular αlisa assay in SKNBE2 cells, Aβ42; type: cell-based; details: Homo sapiens, SKNBE2, 18 h, SKNBE2 cells expressing hAPP695, incubated for 18 hours; read-out: Cellular αlisa assay in SKNBE2 cells Aβ42 pIC50 (converted)
Protocol: (§1) In two αlisa assays the levels of Aβtotal and Aβ42 produced and secreted into the medium of human neuroblastoma SKNBE2 cells are quantified. The assay is based on the human neuroblastoma SKNBE2 expressing the wild type Amyloid Precursor Protein (hAPP695). The compounds are diluted and added to these cells, incubated for 18 hours and then measurements of Aβ42 and Aβtotal are taken. Aβtotal and Aβ42 are measured by sandwich αlisa. αlisa is a sandwich assay using biotinylated antibody AbN/25 attached to streptavidin coated beads and antibody Ab4G8 or cAb42/26 conjugated acceptor beads for the detection of Aβtotal and Aβ42 respectively. In the presence of Aβtotal or Aβ42, the beads come into close proximity. The excitation of the Donor beads provokes the release of singlet oxygen molecules that triggers a cascade of energy transfer in the Acceptor beads, resulting in light emission. Light emission is measured after 1 hour incubation (excitation at […] and emission at 615 nm).
(§2) A best-fit curve is fitted by a minimum sum of squares method to the plot of % Controlmin versus compound concentration.
(§3) LC=Median of the low control values
(§4) =Low control: cells preincubated without compound, without biotinylated Ab in the αlisa
(§5) HC=Median of the High control values
(§6) =High Control: cells preincubated without compound % Effect=100−[(sample−LC)/(HC−LC)*100] % Control=(sample/HC)*100% % Controlmin=(sample−LC)/(HC−LC)*100

[2] = target: T1, recombinant BACE1 protein (Homo sapiens, UniProt P56817); test: Biochemical FRET based assay; details: recombinant BACE1 1 μg/ml, 10 μm substrate, 120 minutes, room temperature, pH 5.0; read-out: Biochemical FRET based assay pIC50 (converted)
T1 construct: recombinant BACE1 protein in a final concentration of 1 μg/ml
Source text: This assay is a Fluorescence Resonance Energy Transfer Assay (FRET) based assay. The substrate for this assay is an APP derived 13 amino acids peptide that contains the ‘Swedish’ Lys-Met/Asn-Leu mutation of the amyloid precursor protein (APP) β-secretase cleavage site. This substrate also contains two fluorophores: (7-methoxycoumarin-4-yl) acetic acid (Mca) is a fluorescent donor with excitation wavelength at 320 nm and emission at 405 nm and 2,4-Dinitrophenyl (Dnp) is a proprietary quencher acceptor. […] Upon cleavage by BACE1, the fluorophore Mca is separated from the quenching group Dnp, restoring the full fluorescence yield of the donor. The increase in fluorescence is linearly related to the rate of proteolysis (Koike H et al. J. Biochem. 1999, 126, 235-242).
Briefly in a 384-well format recombinant BACE1 protein in a final concentration of 1 μg/ml is incubated for 120 minutes at room temperature with 10 μm substrate in incubation buffer (40 mM Citrate buffer pH 5.0, 0.04% PEG, 4% DMSO) in the absence or presence of compound. Next the amount of proteolysis is directly measured by fluorescence measurement at T=0 and T=120 (excitation at 320 nm and emission at 405 nm).
as §3
=Low control: Reaction without enzyme
as §5
=High Control: Reaction with enzyme % Effect=100−[(sample−LC)/(HC−LC)*100] % Control=(sample/HC)*100% % Controlmin=(sample−LC)/(HC−LC)*100

[3] = tested on: Aβtotal produced and secreted into the medium of human neuroblastoma SKNBE2 cells; test: Cellular αlisa assay in SKNBE2 cells, Aβtotal; type: cell-based; details: Homo sapiens, SKNBE2, 18 h, SKNBE2 cells expressing hAPP695, incubated for 18 hours; read-out: Cellular αlisa assay in SKNBE2 cells Aβtotal pIC50 (converted)
Protocol: as §1, §2, §3, §4, §5, §6

T1 sequence (P56817 46-501): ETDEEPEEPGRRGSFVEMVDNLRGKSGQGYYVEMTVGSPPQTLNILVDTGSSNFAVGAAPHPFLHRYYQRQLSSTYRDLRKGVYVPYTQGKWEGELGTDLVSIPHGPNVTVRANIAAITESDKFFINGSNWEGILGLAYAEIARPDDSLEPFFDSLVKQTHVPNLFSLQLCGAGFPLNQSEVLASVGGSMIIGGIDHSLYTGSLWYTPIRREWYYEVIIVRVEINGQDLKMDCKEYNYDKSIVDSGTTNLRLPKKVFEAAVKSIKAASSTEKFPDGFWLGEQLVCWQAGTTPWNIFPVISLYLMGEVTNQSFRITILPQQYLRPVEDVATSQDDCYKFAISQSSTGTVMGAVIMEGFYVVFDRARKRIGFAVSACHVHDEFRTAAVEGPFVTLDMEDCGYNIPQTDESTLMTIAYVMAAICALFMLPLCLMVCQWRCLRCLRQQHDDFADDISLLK

Row | SMILES | IC50 [1] [nM] | IC50 [2] [nM] | IC50 [3] [nM]
1 | C[C@@]1(c2cc(NC(=O)c3ccc(F)cn3)ccc2F)Cn2cc(Cl)nc2C(N)=N1 [Compound 53] | 36.3 | 61.7 | 35.5
2 | C[C@@]1(c2cc(NC(=O)c3ccc(F)cn3)ccc2F)Cn2cc(Br)nc2C(N)=N1 [Compound 54] | 32.4 | 75.9 | 35.5
3 | C[C@@]1(c2cc(NC(=O)c3ccc(F)cn3)ccc2F)Cn2cc(C#N)nc2C(N)=N1 [Compound 56, (R)—N-{3-[8-amino-2-cyano-6-methyl-5,6-dihydroimidazo[1,2-a]pyrazin-6-yl]-4-fluorophenyl}-5-fluoropyridine-2-carboxamide] | 20.9 | 83.2 | 21.9
4 | COc1cnc(C(=O)Nc2ccc(F)c([C@]3(C)Cn4c(Cl)cnc4C(N)=N3)c2)cn1 [Compound 57] | 13.5 | 66.1 | 14.8
5 | C[C@@]1(c2cc(NC(=O)c3ccc(F)cn3)ccc2F)Cn2c(Cl)cnc2C(N)=N1 [Compound 58] | 20 | 75.9 | 20

More lines, now with the values ahead:

Row | IC50 [1] [nM] | IC50 [2] [nM] | IC50 [3] [nM] | SMILES
6 | 40.7 | 97.7 | 38 | COc1cnc(C(=O)Nc2ccc(F)c([C@]3(C)Cn4cc(Cl)nc4C(N)=N3)c2)cn1 [Compound 52]
7 | 31.6 | 112 | 32.4 | COc1cnc(C(=O)Nc2ccc(F)c([C@]3(C)Cn4cc(Br)nc4C(N)=N3)c2)cn1 [Compound 55]
